Source: US11787762B2, “Tetralin and tetrahydroquinoline compounds as inhibitors of HIF-2alpha” (ARCUS BIOSCIENCES, INC., priority 2020, dated 2023)

Target: T1, HIF-2α (Homo sapiens, UniProt Q99814)
T1 construct: host or cells: 786-O cells stably transduced with Cignal Lenti HIF Luc Reporter (only the reporter was introduced, not HIF-2α)
Experiment: HIF-2α luciferase reporter assay in HIF-Luc-786-O cells
Format: cell-based
Details: Table 3, 20 hours incubation
Description: Generation of HIF-2α Luciferase 786-O Cell Line:
Stable cell lines were generated by transducing 786-O cells (ATCC, CRL-1932) with Cignal Lenti HIF Luc Reporter lentivirus (CLS-007 L, Qiagen) according to the manufacturer's guidelines. In brief, 0.3×10^6 786-0 cells were transduced with lentivirus at a Multiplicity of Infection (MOI) of 25 for 24 hours. After transduction, cells were replenished with fresh RPMI 1640 Medium (Cat. No. 11875085, Thermo Fisher,) supplemented with 10% FBS (Cat. No. A3160502, Gibco), 2 mM GlutaMax (Cat. No. 35050-061, Invitrogen) and 100 units of penicillin and 100 μg of streptomycin/mL (Cat. No 15070063, Thermo Fisher) for another 24 hours. Antibiotic selection was performed in cell media containing 4 μg/mL of Puromycin. After 7 days of antibiotic selection, stable pools of surviving cells were expanded and used in a luciferase reporter assay.
HIF-2α Luciferase Reporter Assay:
On day one, 20 uL of HIF-Luc-786-0 cells in OptiMem (Cat. No. 31985088, Thermo Fisher) were seeded into each well of a 384 well white opaque plate (Corning 3570) and incubated at 37° C. and 5% CO2. Twenty microliters of 2× test compounds in OptiMem were added to cells after 4 hours of incubation. Final assay conditions comprised 20,000 cells per well in 1% DMSO with test compound concentrations ranging from 50 uM to 0 uM. After 20 hours incubation at 37° C. and 5% CO2, luciferase activity was determined using ONE-Glo Luciferase Assay Reagent (E6110, Promega) following the manufacture's recommended procedure. Briefly, 40 uL of ONE-Glo luciferase reagents were added to each well and luciferase signals were measured using an Envision 2102 Multilabel Reader. Percentage maximum activity in each test well was calculated based on DMSO (maximum activity) and no cell control wells (baseline activity). The IC50 values of the test compounds were determined from compound dose response curves fitted using a standard four parameter fit equation.

T1 sequence (Q99814 whole entry): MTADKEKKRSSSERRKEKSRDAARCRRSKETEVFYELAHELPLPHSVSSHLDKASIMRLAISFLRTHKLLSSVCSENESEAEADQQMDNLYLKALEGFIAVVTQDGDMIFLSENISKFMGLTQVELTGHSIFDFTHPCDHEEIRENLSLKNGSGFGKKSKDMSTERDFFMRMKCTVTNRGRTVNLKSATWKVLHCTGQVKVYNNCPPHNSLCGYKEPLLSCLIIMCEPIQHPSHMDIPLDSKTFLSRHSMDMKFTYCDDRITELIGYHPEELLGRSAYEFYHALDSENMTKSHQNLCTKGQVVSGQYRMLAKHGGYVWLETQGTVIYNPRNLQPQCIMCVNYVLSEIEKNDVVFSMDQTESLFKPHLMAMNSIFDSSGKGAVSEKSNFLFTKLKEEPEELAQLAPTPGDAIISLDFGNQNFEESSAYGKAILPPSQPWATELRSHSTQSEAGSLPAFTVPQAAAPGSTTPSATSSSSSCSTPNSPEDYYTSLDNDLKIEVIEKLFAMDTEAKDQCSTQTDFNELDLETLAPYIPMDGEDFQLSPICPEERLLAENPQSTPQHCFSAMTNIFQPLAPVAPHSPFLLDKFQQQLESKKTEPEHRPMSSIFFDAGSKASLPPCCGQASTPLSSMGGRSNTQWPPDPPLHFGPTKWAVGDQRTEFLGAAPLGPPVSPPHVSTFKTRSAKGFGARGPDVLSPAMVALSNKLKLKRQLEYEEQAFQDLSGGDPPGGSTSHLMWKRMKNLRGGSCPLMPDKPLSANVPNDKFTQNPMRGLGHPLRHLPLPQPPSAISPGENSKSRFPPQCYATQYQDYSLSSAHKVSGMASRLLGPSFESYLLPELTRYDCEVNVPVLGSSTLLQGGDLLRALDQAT

Cc1nc(N)ccc1-c1ccc([C@H]2C[C@H](F)[C@H](F)c3cc(F)cc(C#N)c32)c2c1[C@H](O)C(F)(F)C2 [Example 216, (5R,6S,8R)-8-[(1S)-7-(6-amino-2-methylpyridin-3-yl)-2,2-difluoro-1-hydroxy-2,3-dihydro-1H-inden-4-yl]-3,5,6-trifluoro-5,6,7,8-tetrahydronaphthalene-1-carbonitrile]
IC50: < 100 nM

N#Cc1cc(N)ncc1-c1ccc([C@H]2CC[C@H](F)c3cc(F)cc(C#N)c32)c2c1[C@H](O)C(F)(F)C2 [Example 149, 2-amino-5-[(3S)-7-[(1R,4S)-8-cyano-4,6-difluoro-1,2,3,4-tetrahydronaphthalen-1-yl]-2,2-difluoro-3-hydroxy-1,3-dihydroinden-4-yl] pyridine-4-carbonitrile]
IC50: < 100 nM

N#Cc1cc(F)cc2c1[C@@H](c1ccc(C(=O)O)c3c1CC(F)(F)[C@H]3O)CC[C@@H]2F [Example 223, (3S)-7-[(1R,4S)-8-cyano-4,6-difluoro-1,2,3,4-tetrahydronaphthalen-1-yl]-2,2-difluoro-3-hydroxy-1,3-dihydroindene-4-carboxylic acid]
IC50: 100 to 1000 nM

Cc1nccnc1-c1ccc([C@H]2CC[C@H](F)c3cc(F)cc(C#N)c32)c2c1[C@H](O)C(F)(F)C2 [Example 176, (5S,8R)-8-[(1S)-2,2-difluoro-1-hydroxy-7-(3-methylpyrazin-2-yl)-1,3-dihydroinden-4-yl]-3,5-difluoro-5,6,7,8-tetrahydronaphthalene-1-carbonitrile]
IC50: < 100 nM

N#Cc1cc(F)cc2c1[C@@H](c1ccc(-c3cccc4cn[nH]c34)c3c1CC(F)(F)[C@H]3O)CC[C@@H]2F [Example 187, (5S,8R)-8-[(1S)-2,2-difluoro-1-hydroxy-7-(1H-indazol-7-yl)-1,3-dihydroinden-4-yl]-3,5-difluoro-5,6,7,8-tetrahydronaphthalene-1-carbonitrile]
IC50: < 100 nM

Cc1ncn(C)c1-c1ccc([C@H]2CC[C@H](F)c3cc(F)cc(C#N)c32)c2c1[C@H](O)C(F)(F)C2 [Example 232, (5S,8R)-8-[(1S)-7-(3,5-dimethylimidazol-4-yl)-2,2-difluoro-1-hydroxy-1,3-dihydroinden-4-yl]-3,5-difluoro-5,6,7,8-tetrahydronaphthalene-1-carbonitrile]
IC50: < 100 nM

N#Cc1cc(F)cc2c1[C@@H](c1ccc(-c3ncncc3N)c3c1CC(F)(F)[C@H]3O)CC[C@@H]2F [Example 181, (5S,8R)-8-[(1S)-7-(5-aminopyrimidin-4-yl)-2,2-difluoro-1-hydroxy-1,3-dihydroinden-4-yl]-3,5-difluoro-5,6,7,8-tetrahydronaphthalene-1-carbonitrile]
IC50: 100 to 1000 nM

Cc1nc(C#N)ncc1-c1ccc([C@H]2C[C@H](F)[C@H](F)c3cc(F)cc(C#N)c32)c2c1[C@H](O)C(F)(F)C2 [Example 220, 5-[(3S)-7-[(1R,3S,4R)-8-cyano-3,4,6-trifluoro-1,2,3,4-tetrahydronaphthalen-1-yl]-2,2-difluoro-3-hydroxy-2,3-dihydro-1H-inden-4-yl]-4-methylpyrimidine-2-carbonitrile]
IC50: < 100 nM

N#Cc1cc(F)cc2c1[C@@H](c1ccc(-c3ccccc3CN)c3c1CC(F)(F)[C@H]3O)CC[C@@H]2F [Example 165, (5S,8R)-8-[(1S)-7-[2-(aminomethyl)phenyl]-2,2-difluoro-1-hydroxy-2,3-dihydro-1H-inden-4-yl]-3,5-difluoro-5,6,7,8-tetrahydronaphthalene-1-carbonitrile]
IC50: 100 to 1000 nM

CS(=O)(=O)c1c(C#N)cc([C@H]2CC[C@H](F)c3cc(F)cc(C#N)c32)c2c1[C@H](O)[C@H](F)C2 [Example 214, (5S,8R)-8-[(1S,2R)-6-Cyano-2-fluoro-1-hydroxy-7-methylsulfonyl-2,3-dihydro-1H-inden-4-yl]-3,5-difluoro-5,6,7,8-tetrahydronaphthalene-1-carbonitrile]
IC50: 100 to 1000 nM
